# How the values were obtained:
# [1] = Guest molecule concentration after incubation in initial medium without polymer (Comparative Example 1); type: physicochemical; conditions: 37° C.
# Outline: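 Dissolved guest content measured by HPLC of centrifuged supernatants (37° C., 13000 rpm, 5 min) sampled at 0.5 h, 3 h and 6 h. Incubation was polymer-free at 37° C.±0.5° C. in buffers of pH 2.0-7.4; nominal loading was set by maximum clinical dose.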
# [2] = Binary supramolecular self-assembly systems of polymer and target: guest concentration over incubation time (Comparative Example 2); type: physicochemical
# Description: Experiments were conducted according to the steps in Comparative Example 1, and quantitative analysis was carried out using the analytical method for each target to investigate the regulation ability […] stacking.
# [3] = Binary (carrier), ternary and quaternary supramolecular self-assembly systems of polymer, carrier building block and target: guest concentration over incubation time (Examples 1-56); type: physicochemical
# Outline: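 Targets were incubated at 37 °C in pH 2.0–7.4 buffers with 0.5% polymer alone or with carrier building blocks, after 0.5 h sonication for ternary systems, and shaken at 200 rpm. Samples at 0.5–6 h were centrifuged and diluted ≥10-fold, and dissolved target was quantified by HPLC; surfactant was added if needed.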
# [4] = Comparative Example 3: systems with 10% (W/V) natural building block; type: physicochemical; conditions: 6 h
# Description: An initial medium of each above target molecule was used to prepare a solution containing 10% Rubusoside A (313) or 10% (W/V) Mogroside V (319), the solution was sonicated at 37° C. to prepare a solution containing about 100 mg/mL building block 313 or 319 per 1 mL of the initial medium, the clear medium containing the natural building blocks was incubated in a 37° C. constant temperature air bath shaker for 1 hour, and subsequent operations and sample detection followed the steps of Comparative Examples 1 and 2. Considering that each natural building block had different UV absorption and was added at a high concentration, the more specific HPLC method was still used for quantitative determination on the solution concentration of each guest molecule, […].
# [5] = cited from earlier work; for Log P: prost derivatives, Table 31 (relevant information)
# [6] = prost derivatives; 37° C.; cited from earlier work
# [7] = 10% (W/V) Rubusoside A as building block; according to US2012/0121696A1; cited from earlier work
# [8] = binary system with 0.5% polymer 101, incubation 0.5 h
# [9] = binary system with 0.5% polymer 101, incubation 3 h
# [10] = binary system with 0.5% polymer 101, incubation 6 h
# [11] = binary system with 0.5% polymer 102, incubation 0.5 h
# [12] = binary system with 0.5% polymer 102, incubation 3 h
# [13] = binary system with 0.5% polymer 102, incubation 6 h
# [14] = binary system with 0.5% polymer 103, incubation 0.5 h
# [15] = binary system with 0.5% polymer 103, incubation 3 h
# [16] = binary system with 0.5% polymer 103, incubation 6 h
# [17] = binary system with 0.5% polymer 106, incubation 0.5 h
# [18] = binary system with 0.5% polymer 106, incubation 3 h
# [19] = binary system with 0.5% polymer 106, incubation 6 h
# [20] = binary system with 0.5% polymer 107, incubation 0.5 h
# [21] = binary system with 0.5% polymer 107, incubation 3 h
# [22] = binary system with 0.5% polymer 107, incubation 6 h
# [23] = binary system with 0.5% polymer 110, incubation 0.5 h
# [24] = binary system with 0.5% polymer 110, incubation 3 h
# [25] = binary system with 0.5% polymer 110, incubation 6 h
# [26] = ternary: 0.25% 102H + 0.1% 319, 6 h
# [27] = ternary: 0.25% 102H + 1.0% 319, 6 h
# [28] = ternary: 0.25% 102M + 0.5% 302, 6 h
# [29] = ternary: 0.25% 102L + 0.1% 313, 6 h
# [30] = ternary: 0.25% 102L + 1.0% 313, 6 h
structure (smiles),measurement,setting,value
COc1cc(/C=C/C(=O)CC(=O)/C=C/c2ccc(O)c(OC)c2)ccc1O [Curcumin],Concentration of guest molecule measured after different incubated time,"[1]; 0.5 h, pH 6.8 phosphate buffer",1.7 µg/mL
same,Concentration of guest molecule measured after different incubated time,"[1]; 3 h, pH 6.8 phosphate buffer",9.4 µg/mL
same,Concentration of guest molecule measured after different incubated time,"[1]; 6 h, pH 6.8 phosphate buffer",8.6 µg/mL
same,Concentration of the target in the solution measured after different incubation time,[2]; [8],219.7 µg/mL
same,Concentration of the target in the solution measured after different incubation time,[2]; [9],120.1 µg/mL
same,Concentration of the target in the solution measured after different incubation time,[2]; [10],50.3 µg/mL
same,Concentration of the target in the solution measured after different incubation time,[2]; [11],747.8 µg/mL
same,Concentration of the target in the solution measured after different incubation time,[2]; [12],643.4 µg/mL
same,Concentration of the target in the solution measured after different incubation time,[2]; [13],576.7 µg/mL
same,Concentration of the target in the solution measured after different incubation time,[2]; [14],76.1 µg/mL
same,Concentration of the target in the solution measured after different incubation time,[2]; [15],52.9 µg/mL
same,Concentration of the target in the solution measured after different incubation time,[2]; [16],32.7 µg/mL
same,Concentration of the target in the solution measured after different incubation time,[2]; [17],102.6 µg/mL
same,Concentration of the target in the solution measured after different incubation time,[2]; [18],118.1 µg/mL
same,Concentration of the target in the solution measured after different incubation time,[2]; [19],90.3 µg/mL
same,Concentration of the target in the solution measured after different incubation time,[2]; [20],107.4 µg/mL
same,Concentration of the target in the solution measured after different incubation time,[2]; [21],8.3 µg/mL
same,Concentration of the target in the solution measured after different incubation time,[2]; [22],7.7 µg/mL
same,Concentration of the target in the solution measured after different incubation time,[2]; [23],6.0 µg/mL
same,Concentration of the target in the solution measured after different incubation time,[2]; [24],8.3 µg/mL
same,Concentration of the target in the solution measured after different incubation time,[2]; [25],10.0 µg/mL
same,Concentration of guest molecule in solution,"[2]; binary: 0.25% 102M, 2 h",962.6 µg/mL
same,Concentration of guest molecule in solution,"[2]; binary: 0.25% 102M, 6 h",6.4 µg/mL
same,Concentration of guest molecule in solution,"[2]; binary: 0.5% 102M, 6 h",576.6 µg/mL
same,Times that of the initial medium,"[2]; binary: 0.5% 102M, 6 h",67 times
same,Concentration of guest molecule in solution,"[3]; quaternary: 0.25% 204 (102M+103E5) + 302, 6 h",34.2 µg/mL
same,Concentration of guest molecule in solution,[3]; [26],676.6 µg/mL
same,Times that in Comparative Example 3,[3]; [26],81.5 times
same,Concentration of guest molecule in solution,[3]; [27],516.3 µg/mL
same,Times that in Comparative Example 3,[3]; [27],62.2 times
same,Concentration of guest molecule in solution,"[3]; ternary: 0.25% 102M + 0.05% 314, 0.5 h",140.0 µg/mL
same,Concentration of guest molecule in solution,"[3]; ternary: 0.25% 102M + 0.05% 314, 6 h",5.2 µg/mL
same,Concentration of guest molecule in solution,"[3]; ternary: 0.25% 102M + 0.1% 314, 4 h",1036.7 µg/mL
same,Concentration of guest molecule in solution,[3]; [28],862.1 µg/mL
same,Times that of the initial medium,[3]; [28],100.6 times
same,Concentration of guest molecule in solution,"[3]; ternary: 0.25% 102M + 1.0% or 1.5% 314, 0.5 h-4.0 h",~1000 µg/mL
same,Concentration of guest molecule in solution,"[3]; ternary: 0.25% 102M + 1.0% or 1.5% 314, 6 h",900 µg/mL
same,Concentration of guest molecule in solution,"[3]; ternary: 102H + 313, 4 h",about 609.8 μg/mL
same,Concentration of guest molecule in solution,"[3]; ternary: 102H + 317, 4 h",~638.6 µg/mL
same,Concentration of guest molecule in solution,[4]; Comparative Example 3: 10% 319,8.3 µg/mL
same,LogP,[5],4.12
"CC(C)OC(=O)CCC/C=C\C[C@@H]1[C@@H](CC[C@@H](O)CCc2ccccc2)[C@H](O)C[C@@H]1O [Latanoprost, latanoprost]",Log P,[5],3.98
same,Intrinsic solubility,[6],0.03 mg/mL
"CCNC(=O)CCC/C=C\C[C@@H]1[C@@H](/C=C/[C@@H](O)CCc2ccccc2)[C@H](O)C[C@@H]1O [Bimatoprost, bimatoprost]",Log P,[5],2.65
same,Intrinsic solubility,[6],0.05 mg/mL
Cc1ccc(-c2cc(C(F)(F)F)nn2-c2ccc(S(N)(=O)=O)cc2)cc1 [Celecoxib],Concentration of guest molecule measured after different incubated time,"[1]; 0.5 h, pH 2.0 hydrochloric acid",20.5 µg/mL
same,Concentration of guest molecule measured after different incubated time,"[1]; 3 h, pH 2.0 hydrochloric acid",5.4 µg/mL
same,Concentration of guest molecule measured after different incubated time,"[1]; 6 h, pH 2.0 hydrochloric acid",4.2 µg/mL
same,Concentration of the target in the solution measured after different incubation time,[2]; [8],224.3 µg/mL
same,Concentration of the target in the solution measured after different incubation time,[2]; [9],62.2 µg/mL
same,Concentration of the target in the solution measured after different incubation time,[2]; [10],54.4 µg/mL
same,Concentration of the target in the solution measured after different incubation time,[2]; [11],19.6 µg/mL
same,Concentration of the target in the solution measured after different incubation time,[2]; [12],11.1 µg/mL
same,Concentration of the target in the solution measured after different incubation time,[2]; [13],10.6 µg/mL
same,Concentration of the target in the solution measured after different incubation time,[2]; [14],31.1 µg/mL
same,Concentration of the target in the solution measured after different incubation time,[2]; [15],32.2 µg/mL
same,Concentration of the target in the solution measured after different incubation time,[2]; [16],31.9 µg/mL
same,Concentration of the target in the solution measured after different incubation time,[2]; [17],49.0 µg/mL
same,Concentration of the target in the solution measured after different incubation time,[2]; [18],30.1 µg/mL
same,Concentration of the target in the solution measured after different incubation time,[2]; [19],26.3 µg/mL
same,Concentration of the target in the solution measured after different incubation time,[2]; [20],36.4 µg/mL
same,Concentration of the target in the solution measured after different incubation time,[2]; [21],35.4 µg/mL
same,Concentration of the target in the solution measured after different incubation time,[2]; [22],35.3 µg/mL
same,Concentration of the target in the solution measured after different incubation time,[2]; [23],6.4 µg/mL
same,Concentration of the target in the solution measured after different incubation time,[2]; [24],11.1 µg/mL
same,Concentration of the target in the solution measured after different incubation time,[2]; [25],4.8 µg/mL
same,Concentration of guest molecule in solution,[3]; [29],988.1 µg/mL
same,Times that in Comparative Example 3,[3]; [29],31.9 times
same,Concentration of guest molecule in solution,[3]; [30],352.3 µg/mL
same,Times that in Comparative Example 3,[3]; [30],11.4 times
same,Concentration of guest molecule in solution,[4]; Comparative Example 3: 10% 313,31.3 µg/mL
same,Concentration in the solution,[7],109 µg/mL

# From patent US20250339399A1, “SUPRAMOLECULAR SELF-ASSEMBLY SYSTEM” (Beijing Creatron Institute of Pharmaceutical Research Co., …, priority 2022, published 2025)
